Assay results published in PMC8237267 (Journal of Medicinal Chemistry, 2021).

Key:
acetylation of α-tubulin = assay: Immunofluorescence assay in HeLa cells; format: cell-based; conditions: 6 h, increasing doses
Description: HeLa cells were plated to subconfluency on a 96-well plate (clear bottom black from Fisher Scientific). As above, inhibitors were introduced following 24 h. The cells were washed with 1× PBS, fixed with 4% formaldehyde (Millipore Sigma), permeabilized with 1% Triton X-100 (Millipore Sigma), and blocked in 5% bovine serum albumin (BSA) (BioShop) for 1 h at room temperature. Following this treatment, the cells were incubated in a cocktail composed of acetylated α-tubulin mouse monoclonal (1:100 dilution, MD Millipore) and acetylated histone H3 (1:50 dilution, Ac-Lys18, Sigma) antibodies. Secondary antibodies anti-mouse Alexa Fluor 647 and anti-rabbit Alexa Fluor 488 were used for immunofluorescent detection. Cells were counterstained for nucleic acids using 4′,6-diamidino-2-phenylindole (DAPI) (ThermoFisher Scientific). The cells were imaged with a Cytation S63 spectrophotometer and the fluorescence intensity was determined using ImageJ (n = 3). Two-way ANOVA with Tukey’s multiple comparisons test were performed using GraphPad Prism 6.0 (GraphPad Software Inc.). A p-value ≤ 0.05 was considered significant.

SNK6 = assay: Cytotoxicity assay (Cell Titer-Blue, 72 h); format: cell-based; conditions: T/NK cell lymphoma, one representative of three experiments, read-out: IC50 (heat map) SNK6
DERL-2 = assay: Cytotoxicity assay (Cell Titer-Blue, 72 h); format: cell-based; conditions: γδ T-NHL; one representative of three experiments; read-out: IC50 (heat map) DERL-2
[1] = In vivo PK study in CD-1 male mice; conditions: mouse, plasma, CD-1 mice, IP, 20 mg/kg
[2] = tested on: HUVEC (primary human umbilical vein endothelial cells); assay: Cytotoxicity assay (Cell Titer-Blue, 72 h); format: cell-based; conditions: read-out: Cellular IC50 HUVEC
MRC-9 = assay: Cytotoxicity assay (Cell Titer-Blue, 72 h); format: cell-based; conditions: MRC9; MRC-9 (healthy fibroblasts); read-out: In cellulo IC50 MRC-9
Myla = assay: Cytotoxicity assay (Cell Titer-Blue, 72 h); format: cell-based; conditions: CTCL; one representative of three experiments; read-out: IC50 (heat map) Myla
SUP-T11 = assay: Cytotoxicity assay (Cell Titer-Blue, 72 h); format: cell-based; conditions: SUPT11; T-ALL/T-PLL like; one representative of three experiments; read-out: IC50 (heat map) SUP-T11
KHYG-1 = assay: Cytotoxicity assay (Cell Titer-Blue, 72 h); format: cell-based; conditions: ANKL, one representative of three experiments, read-out: IC50 (heat map) KHYG-1
MOLM-13 = assay: Cytotoxicity assay (Cell Titer-Blue, 72 h); format: cell-based; conditions: Homo sapiens, AML, one representative of three experiments, read-out: IC50 (heat map) MOLM-13
Hut78 = assay: Cytotoxicity assay (Cell Titer-Blue, 72 h); format: cell-based; conditions: Homo sapiens, CTCL, one representative of three experiments, read-out: IC50 (heat map) Hut78
Description: (§1) The PTCL cell lines, KHYG-1, NK-92, SNK6, DERL-2, Mac1, 1305 Myla, Hut78, SU-DHL-1 or T-ALL cell lines SUP-T11, DND-41, and MOLT4 were maintained in RPMI-1640 supplemented with 10% FBS, 0.06 g/L penicillin/0.1 g/L streptomycin (Pen/Strep, Gibco), and 2 mM L-glutamine (Gibco). Culture media of KHYG-1, NK-92, SNK6, and DERL-2 cells was additionally supplemented with 2.5 ng/mL recombinant human IL-2 (ImmunoTools GmbH, Germany). The authenticity of PTCL cell lines was confirmed by analysis of highly polymorphic short tandem repeat loci (STR) using the PowerPlex 16 HS System (Promega; performed by Microsynth AG, Switzerland).
(§2) Cells were plated in 96-well flat-bottom sterile culture plates with low-evaporation lids (Costar #3997). The inhibitors and a vehicle control (0.5% DMSO) were added to the cells following 24 h. After 72 h, Cell Titer-Blue (Promega #G808A) was added to each well (20 μL), and the fluorescence was measured at 560/590 nm using a Cytation S63 spectrophotometer (BioTek) or a GloMax Discover Microplate Reader (Promega, Madison, WI, USA). GraphPad Prism 6.0 (GraphPad Software Inc.) was used to determine the IC50 values.

Mac1 = assay: Cytotoxicity assay (Cell Titer-Blue, 72 h); format: cell-based; conditions: ALK- ALCL; one representative of three experiments; read-out: IC50 (heat map) Mac1
Description: as §1, §2

MOLT4 = assay: Cytotoxicity assay (Cell Titer-Blue, 72 h); format: cell-based; conditions: Homo sapiens, MOLT-4; T-ALL; one representative of three experiments; read-out: IC50 (heat map) MOLT4
MV4-11 = assay: Cytotoxicity assay (Cell Titer-Blue, 72 h); format: cell-based; conditions: Homo sapiens; MV4-11 (AML); read-out: In cellulo IC50 MV4-11
[3] = tested on: pPF (primary pooled fibroblasts from 250 donors); assay: Cytotoxicity assay (Cell Titer-Blue, 72 h); format: cell-based; conditions: Fibroblast, read-out: Cellular IC50 pPF
acetylated histone H3 = assay: Western blot in MV4-11 cells; format: cell-based; conditions: MV4-11, 6 h
Description: (§3) Briefly, MV4-11 cells were incubated with inhibitors prior to cell lysis with radioimmunoprecipitation assay (RIPA) buffer (20 mM Tris pH 7.4, 150 mM NaCl, 0.5% deoxycholate, 1% Triton X-100, and 0.1% sodium dodecyl sulfate (SDS)). Total protein content was determined through a BCA assay (ThermoFisher), resolved via a 4–20% polyacrylamide SDS gel, and transferred to a nitrocellulose membrane (Bio-Rad). The membranes were blocked with a 5% solution (skimmed milk powder in PBS-T). This was followed by incubation at 4 °C (overnight) with the following antibodies: acetylated α-tubulin mouse monoclonal (MABT868, EMD Millipore), acetylated histone H3 (Ac-Lys18, 07–354, Sigma), PARP-1 (ab227244, Abcam), apoptosis Western blot cocktail (136812, Abcam), cleaved PARP-1 (ab32561, Abcam), and HSC70 (sc-7298, Santa Cruz). Following overnight incubation, horseradish peroxidase (HRP)-conjugated goat anti-mouse IgG secondary antibody (7076, Cell Signaling) or HRP-linked anti-rabbit IgG secondary antibody (7074, Cell Signaling) was applied to the membrane in a 1:5000 dilution. The bands were visualized using clarity Western ECL substrate luminal/enhancer solution and peroxide solution. Western blotting analysis was carried out using Image lab software (Bio-Rad).[47],[50],[70]

DND-41 = assay: Cytotoxicity assay (Cell Titer-Blue, 72 h); format: cell-based; conditions: DND41; T-ALL; one representative of three experiments; read-out: IC50 (heat map) DND-41
MV4-11 cells = assay: FACS apoptosis detection assay (Annexin V/PI); format: cell-based; conditions: MV4-11, 18 h
Description: MV4-11 cells were prepared, dosed, and washed with cold 1× PBS. The resulting cell pellets were resuspended in 1× Binding Buffer (1 × 10^6 cell/mL) from the FITC Annexin V Apoptosis Detection Kit I (BD Pharmingen). Subsequently, the dyes annexin V (5 μL) and propidium iodide (PI, 5 μL) were added to 2.5 × 10^5 cells (250 μL). The suspension was thoroughly mixed and incubated in the dark for 15 min. Following the addition of 250 μL of 1× binding buffer, the cells were analyzed by flow cytometry within 1 h using the Cytoflex S system (Beckman Coulter).

[4] = tested on: NHF (normal human fibroblasts); assay: Cytotoxicity assay (Cell Titer-Blue, 72 h); format: cell-based; conditions: Fibroblast, read-out: Cellular IC50 NHF
NK-92 = assay: Cytotoxicity assay (Cell Titer-Blue, 72 h); format: cell-based; conditions: NK92; LGL; one representative of three experiments; read-out: IC50 (heat map) NK-92
[5] = tested on: cleavage of PARP-1 and Caspase-3; assay: Western blot of apoptosis markers in MV4-11 cells; format: cell-based; conditions: MV4-11, 6 h, 5 μM
Description: as §3

SU-DHL-1 = assay: Cytotoxicity assay (Cell Titer-Blue, 72 h); format: cell-based; conditions: Homo sapiens, ALK+ ALCL, one representative of three experiments, read-out: IC50 (heat map) SU-DHL-1

O=C(CCCCCCNC(=O)c1cnc(N(c2ccccc2)c2ccccc2Cl)nc1)NO [Citarinostat]
acetylation of α-tubulin (immunofluorescence) (acetylation of α-tubulin): weaker acetylation as compared to KT-531
IC50 (SNK6): 1.9 µM
IC50 (DERL-2): 1.02 µM
AUC(0-t) ([1]; read-out: In vivo AUClast (overall exposure)): 4160 ng·h/mL
half-life ([1]; read-out: In vivo t1/2): 15 min
IC50 [2]: 4.86 µM
IC50 (MRC-9): > 30 µM
IC50 (Myla): 7.97 µM
IC50 (SUP-T11): 3.94 µM
IC50 (KHYG-1): 1.2 µM
IC50 (MOLM-13): 1.98 µM
IC50 (Hut78): 3.77 µM
IC50 (Mac1): 1.78 µM
IC50 (MOLT4): 1.72 µM
IC50 (MV4-11): 1.34 µM
IC50 [3]: 7.44 µM
acetylated histone H3 levels (Western blot) (acetylated histone H3): higher with citarinostat in comparison to KT-531
IC50 (DND-41): 1.96 µM
Early Apoptosis (MV4-11 cells; 0.5 μM): 9%
Late Apoptosis (MV4-11 cells; 1 μM): 10%
Healthy (nonapoptotic) (MV4-11 cells; 2 μM): 47%
IC50 [4]: 5.74 µM
IC50 (NK-92): 1.97 µM
cleavage of PARP-1 and Caspase-3 [5]: absence of cleaved Caspase-3 and PARP-1
IC50 (SU-DHL-1): 4.66 µM
